Test results reported in US20160002294A1, “NOVEL POLYPEPTIDES HAVING SATIETY HORMONE RELEASING ACTIVITY” (SOLAE LLC, priority 2013, published 2016).
Where two headings read alike, the source gives them in different places.

How the values were obtained:
STC-1 cells [1] = conditions: 4 h
Method: To assay for CCK release activity, SEQ ID NO: 1 was dissolved in Dulbecco's phosphate buffered saline (D-PBS) at 10 mg/ml. This solution was then diluted to between 0.002 and 4 mg/ml with d-PBS, then added to media of STC-1 cells (passage 25 to 28) in 1:1 ratio of D-PBS and Dulbecco's Modified Eagle's Medium (DMEM-high glucose) and incubated with the cells at 37° C. (99° F.) and a CO2 level of 5% for 4 hours. The solution containing SEQ ID NO: 1 was added to cells at a variety of concentrations ranging from 0.001 to 2 mg/ml to generate a dose-response curve.
Following the incubation period, concentrations of CCK released by STC-1 cells into the media were assayed using a commercially available immunoassay kit for CCK detection from Phoenix Pharmaceuticals, Burlingame, Calif. (catalogue number EK-069-04). Assays were performed according to the manufacturer's instructions using a standard curve covering a range of concentrations from 0.4 to 1000 pg/well. Absorbance was measured at a wavelength of 450 nm.
CCK quantities obtained from each tested concentration of SEQ ID NO: 1 were plotted vs. log concentration of peptide. A dose-response curve was then generated by fitting the data with a logistic function using OriginLab graphing software.
Each variant was assayed for CCK activity at 2 mg/ml using the method described in Example 1.

STC-1 cells [2] = conditions: 2 h
Method: To assay for GLP-1 release activity, SEQ ID NO: 1 was dissolved in Dulbecco's phosphate buffered saline (D-PBS) at 10 mg/ml. This solution was diluted to between 0.002 and 4 mg/ml with D-PBS, then added to media of STC-1 cells (passage 25 to 28) in 1:1 ratio of D-PBS and Dulbecco's Modified Eagle's Medium (DMEM-high glucose) and incubated with the cells at 37° C. (99° F.) and a CO2 level of 5% for 2 hours. The solution containing SEQ ID NO: 1 was added to cells at a variety of concentrations ranging from 0.001 to 2 mg/ml to generate a dose-response curve.
Following the incubation period, concentrations of GLP-1 released by the STC-1 cells into the media were assayed using a commercially available immunoassay kit for GLP-1 detection from Phoenix Pharmaceuticals, Burlingame, CA (catalogue number EK-028-11). Assays were performed according to the manufacturer's instructions using a standard curve covering a range of concentrations from 0.4 to 1000 pg/well. Absorbance was measured at a wavelength of 450 nm.
GLP-1 quantities obtained from each tested concentration of SEQ ID NO: 1 were plotted vs. log concentration of peptide. A dose-response curve was then generated by fitting the data with a logistic function using OriginLab graphing software.
Each variant was assayed for GLP-1 activity at 2 mg/ml using the method described in Example 2.

- EC50 (STC-1 cells [1]): 43 µM
- EC50 (STC-1 cells [2]): 186 µM
Substance: H-TSLDFPALSWLRL-OH [SEQ ID NO: 1, NH2-TSLDFPALSWLRL-COOH]
